In patent USRE37355E, “6-dimethylaminomethyl-1-phenyl-cyclohexane compounds as pharmaceutical active ingredients” (priority 1995, dated 2001):

Test system: mice
Assay: Testing for analgesia using the tail flick test on mice
Type: in vivo, NMRI mice
Details: Mus musculus, 20 min; NMRI mice, intravenous, 20 minutes after administration; Litchfield and Wilcoxon; read-out: ED50 (tail flick test, analgesia)
From the text: Testing for analgesia using the tail flick test on mice
The analgesic effectiveness of the compounds according to the invention was investigated in the thermal radiation (tail flick) test on mice using the method of D'Amour and Smith (J. Pharm. Exp. Ther. 72, 74-79 (1941). […]. The animals were placed in a special test cage and the bases of their tails were exposed to the focused thermal radiation from an electric lamp (Rhema Analgesiemeter Type 3010). The lamp intensity was adjusted so that the time from switching on the lamp until the sudden twitching away of the tail (latency of pain) was 3-5 seconds for untreated animals. Before the administration of a compound according to the invention, the animals were pre-tested twice within five minutes and the average value of these measurements was calculated as the pre-test average. The pain measurement was made 20, 40 and 60 minutes after intravenous administration. […]. In order to determine the dosage-dependency, the respective compound according to the invention was applied in doses increasing logarithmically by a factor of 3-5, which included the threshold and the maximum effective dose each time. The ED50 values were determined from the number of analgesic animals by the method of Litchfield and Wilcoxon (J. Pharm. Exp. Ther. 96, 99-113, (1949)). Calculation of the ED50 was made at the effective maximum 20 minutes after intraveneous adminstration of the substance.

**Q.** With COc1cccc([C@@]2(O)C[C@H](O)CC[C@@H]2CN(C)C)c1.Cl (racemic) [(17), (1RS,3RS,6RS)-6-dimethylaminomethyl-1-(3-methoxy-phenyl)-cyclohexane-1,3-diol hydrochloride] as the molecule, how does the ED50 read?
**A.** Its ED50 is 5.54 mg/kg.

**Q.** For CN(C)C[C@H]1CCCC[C@]1(F)c1cccc(O)c1.Cl [(+1), (+)-(1R,2R)-3-(2-dimethylaminomethyl-1-fluoro-cyclohexyl)-phenol hydrochloride], which ED50 is on record?
**A.** Its ED50 is 0.64 mg/kg.

**Q.** With CN(C)C[C@H]1CCCC[C@]1(Cl)c1cccc(O)c1.Cl [(+5), (+)-(1R,2R)-3-(1-chloro-2-dimethylaminomethyl-cyclohexyl)-phenol hydrochloride] as the molecule, how does the ED50 read?
**A.** The ED50 was 2.78 mg/kg.

**Q.** For COc1cccc([C@@H]2CCCC[C@@H]2CN(C)C)c1.Cl [(+6), (+)-(1S,2R)-[2-(3-methoxy-phenyl)-cyclohexylmethyl]-dimethylamine hydrochloride], which ED50 is on record?
**A.** Its ED50 is 10.7 mg/kg.

**Q.** Which ED50 does the source give for CN(C)C[C@@H]1CCCC[C@@H]1c1cccc(O)c1.Cl [(+7), (+)-(1S,2R)-3-(2-dimethylaminomethyl-cyclohexyl)-phenol hydrochloride] here?
**A.** Its ED50 is 1.13 mg/kg.

**Q.** With COc1cccc([C@@]2(O)C[C@H](O)CC[C@@H]2CN(C)C)c1.Cl [(+17), (+)-(1R,3R,6R)-6dimethylaminomethyl-1-(3-methoxy-phenyl)-cyclohexane-1,3-diol hydrochloride] as the molecule, how does the ED50 read?
**A.** Its ED50 is 3.93 mg/kg.

**Q.** Which ED50 does the source give for CN(C)C[C@H]1CC[C@@H](O)C[C@]1(O)c1cccc(O)c1.Cl [(+21), (+)-(1R,3R,6R)-6-dimethylaminomethyl-1-(3-hydroxy-phenyl)-cyclohexane-1,3-diol hydrochloride] here?
**A.** Its ED50 is 7.34 mg/kg.

**Q.** With CN(C)C[C@@H]1CCCC[C@@]1(F)c1cccc(O)c1.Cl [(-1), (-)-(1S,2S)-3-(2-dimethylaminomethyl-1-fluoro-cyclohexyl)-phenol hydrochloride] as the molecule, how does the ED50 read?
**A.** Its ED50 is 2.28 mg/kg.

**Q.** How did the ED50 turn out when CN(C)C[C@H]1CCCC[C@H]1c1cccc(O)c1.Cl [(-7), (-)-(1R,2S)-3-(2-dimethylaminomethyl-cyclohexyl)-phenol hydrochloride] was run?
**A.** Its ED50 is 5.9 mg/kg.

**Q.** CN(C)C[C@H]1CCCC[C@H]1c1cccc(OC(=O)C(C)(C)C)c1.Cl [(-8), (-)-(1R,2S)-2,2-dimethylpropionic acid-3-(2-dimethylaminomethyl-cyclohexyl)-phenyl ester hydrochloride] was tested. Which ED50 did it give?
**A.** Its ED50 is 4.61 mg/kg.

**Q.** How did the ED50 turn out when CC(=O)Oc1ccccc1C(=O)Oc1cccc([C@@H]2CCCC[C@@H]2CN(C)C)c1.Cl [(-10), (-)-(1R,2S)-2-acetoxy-benzoic acid-3-(2-dimethylaminomethyl-cyclohexyl)-phenyl ester hydrochloride] was run?
**A.** The ED50 was 8.71 mg/kg.

**Q.** For CC(C)COC(=O)Oc1cccc([C@@H]2CCCC[C@@H]2CN(C)C)c1.Cl [(-11), (-)-(1R,2S)-carbonic acid-[3-(2-dimethylaminomethyl-cyclohexyl)-phenyl]-ester-isobutyl ester hydrochloride], which ED50 is on record?
**A.** Its ED50 is 5.01 mg/kg.

Same assay, conditions: Mus musculus, iv, 20 min, read-out: ED50 (tail flick test, analgesia)

**Q.** COc1cccc([C@@]2(O)CCCC[C@@H]2CN(C)C)c1.Cl (racemic) [Tramadol, (1RS,2RS)-2[(dimethylamino)methyl]-1-(3-methoxyphenyl)cyclohexanol hydrochloride, reference compound] was tested. Which ED50 did it give?
**A.** Its ED50 is 13.6 mg/kg.
